IC50 data for 20 compounds are collected here from patent US10479780B2, “Aminopyrazole derivatives” (Chugai Seiyaku Kabushiki Kaisha, priority 2015, dated 2019).

What all share (format): biochemical
The target in one assay is T1, human Yes1 enzyme (Homo sapiens, UniProt P07947).
T1 construct: made in house
The assay is described as follows: Yes1 enzyme inhibitory activity (time-resolved fluorometry, biotinylated peptide phosphorylation). The settings on record: read-out: YES_IC50. An outline of the steps:
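Inhibition was expressed against a compound-free control to give IC50, using TR-FRET read-out (Eu-cryptate anti-pTyr antibody, streptavidin-XL665).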

The next assay concerns the target T2, human Src enzyme (Homo sapiens, UniProt P12931).
T2 construct: purchased Carna Biosciences, Inc. 08-173
The assay is described as follows: Src enzyme inhibitory activity (time-resolved fluorometry, biotinylated peptide phosphorylation). The settings on record: read-out: SRC_IC50. Put shortly:
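Compounds were tested for blocking tyrosine phosphorylation of a biotinylated peptide substrate by recombinant human Src. Phosphorylated product was quantified by time-resolved fluorometry using europium cryptate and XL665 conjugates, and IC50 was calculated against the compound-free control.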

For a further assay, the target named is T3, human Lck enzyme (Homo sapiens, UniProt P06239).
T3 construct: purchased Carna Biosciences, Inc. 08-170
T3 sequence (P06239 whole entry): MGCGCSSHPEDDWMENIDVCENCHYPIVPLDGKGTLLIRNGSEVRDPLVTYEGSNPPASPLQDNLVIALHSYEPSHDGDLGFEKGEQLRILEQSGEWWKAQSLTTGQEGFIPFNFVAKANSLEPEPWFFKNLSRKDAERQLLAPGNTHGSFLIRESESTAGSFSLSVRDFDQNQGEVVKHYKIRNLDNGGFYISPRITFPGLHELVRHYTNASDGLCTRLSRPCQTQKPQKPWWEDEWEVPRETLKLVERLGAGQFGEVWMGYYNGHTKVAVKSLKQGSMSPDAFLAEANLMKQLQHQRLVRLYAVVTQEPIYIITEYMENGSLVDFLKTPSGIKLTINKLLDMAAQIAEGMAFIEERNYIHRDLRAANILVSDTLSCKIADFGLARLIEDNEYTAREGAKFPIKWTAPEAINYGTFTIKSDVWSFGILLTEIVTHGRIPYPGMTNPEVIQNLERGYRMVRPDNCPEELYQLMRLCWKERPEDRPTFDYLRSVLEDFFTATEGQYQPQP
The assay is described as follows: Lck enzyme inhibitory activity (time-resolved fluorometry, biotinylated peptide phosphorylation). The settings on record: read-out: LCK_IC50. An outline of the steps:
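Readout pairs a europium cryptate-labelled anti-phosphotyrosine antibody with XL665-streptavidin, measured by time-resolved fluorescence. IC50 derived from percent inhibition against untreated controls.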

The mark [1] stands for this setting: biotinylated peptide phosphorylation.

Read-outs that look alike come from different tables or passages of the source.

T1 sequence (P07947 whole entry): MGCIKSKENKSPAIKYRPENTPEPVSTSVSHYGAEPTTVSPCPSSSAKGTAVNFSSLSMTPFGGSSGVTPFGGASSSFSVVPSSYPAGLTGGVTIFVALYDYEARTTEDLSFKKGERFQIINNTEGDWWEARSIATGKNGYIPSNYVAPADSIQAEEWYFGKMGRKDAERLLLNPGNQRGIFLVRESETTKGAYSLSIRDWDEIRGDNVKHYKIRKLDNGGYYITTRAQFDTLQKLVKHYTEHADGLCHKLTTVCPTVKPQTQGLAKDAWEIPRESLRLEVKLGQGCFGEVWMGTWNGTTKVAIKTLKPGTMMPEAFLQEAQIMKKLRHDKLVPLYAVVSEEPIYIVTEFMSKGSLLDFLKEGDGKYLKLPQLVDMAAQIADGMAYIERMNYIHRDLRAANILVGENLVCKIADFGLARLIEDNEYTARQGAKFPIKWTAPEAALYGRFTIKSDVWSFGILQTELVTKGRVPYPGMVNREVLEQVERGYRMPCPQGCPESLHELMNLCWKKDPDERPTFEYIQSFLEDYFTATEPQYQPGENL
T2 sequence (P12931 whole entry): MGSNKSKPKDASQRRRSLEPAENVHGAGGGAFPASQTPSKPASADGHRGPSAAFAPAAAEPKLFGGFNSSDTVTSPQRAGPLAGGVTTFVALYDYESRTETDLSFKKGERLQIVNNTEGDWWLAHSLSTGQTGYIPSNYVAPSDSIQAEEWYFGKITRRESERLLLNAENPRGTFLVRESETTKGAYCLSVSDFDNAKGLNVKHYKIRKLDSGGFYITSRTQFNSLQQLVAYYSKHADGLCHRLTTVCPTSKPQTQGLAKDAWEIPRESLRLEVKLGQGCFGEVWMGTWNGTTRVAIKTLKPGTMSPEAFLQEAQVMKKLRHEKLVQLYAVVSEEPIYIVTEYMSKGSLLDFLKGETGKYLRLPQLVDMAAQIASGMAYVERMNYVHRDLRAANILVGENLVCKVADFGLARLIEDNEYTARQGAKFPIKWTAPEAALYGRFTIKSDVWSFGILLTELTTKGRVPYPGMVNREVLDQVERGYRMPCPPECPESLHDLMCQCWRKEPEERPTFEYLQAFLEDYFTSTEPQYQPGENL

Take `Cc1cc2cc(C(=O)c3cnn(-c4cnc(Oc5cccc(Cl)c5)cc4C)c3N)[nH]c2cc1NS(=O)(=O)CCCF` [Example 4-2-075, N-[2-[5-amino-1-[6-(3-chlorophenoxy)-4-methylpyridin-3-yl]pyrazole-4-carbonyl]-5-methyl-1H-indol-6-yl]-3-fluoropropane-1-sulfonamide]: the IC50 came to 10 nM at human Yes1 enzyme (setting [1]), 170 nM at human Src enzyme (setting [1]) and 110 nM on human Lck enzyme (setting [1]).
`Cc1cc(Oc2c(F)cccc2F)ncc1-n1ncc(C(=O)c2cc3cc(OCC(F)F)c(Br)cc3[nH]2)c1N` [Example 5-1-080, [5-amino-1-[6-(2,6-difluorophenoxy)-4-methylpyridin-3-yl]pyrazol-4-yl]-[6-bromo-5-(2,2-difluoroethoxy)-1H-indol-2-yl]methanone]: the IC50 on human Yes1 enzyme worked out at 3.3 nM; at human Src enzyme, 37 nM; at human Lck enzyme it was 14 nM.
Regarding `Cc1cc(-n2ncc(C(=O)c3cc4cc(OC(F)F)c(N5CCN(S(C)(=O)=O)CC5)cc4[nH]3)c2N)ccc1Oc1ccccc1F` [Example 5-1-175, [5-amino-1-[4-(2-fluorophenoxy)-3-methylphenyl]pyrazol-4-yl]-[5-(difluoromethoxy)-6-(4-methylsulfoNylpiperazin-1-yl)-1H-indol-2-yl]methanone], the IC50 came out at 2.4 nM at human Yes1 enzyme, 350 nM on human Src enzyme and 74 nM at human Lck enzyme.
For the compound `Cc1cc2cc(C(=O)c3cnn(-c4ccc(Oc5ccccc5F)cc4C)c3N)[nH]c2cc1N1C(=O)N[C@@H](CO)C1=O` [Example 5-1-456, (5S)-3-[2-[5-amino-1-[4-(2-fluorophenoxy)-2-methylphenyl]pyrazole-4-carbonyl]-5-methyl-1H-indol-6-yl]-5-(hydroxymethyl)imidazolidine-2,4-dione], the IC50 on human Yes1 enzyme (setting [1]) was 0.4 nM; at human Src enzyme (setting [1]), 8.8 nM; on human Lck enzyme (setting [1]) it was 2.2 nM.
Consider `Cc1cc(Oc2ccccc2F)ccc1-n1ncc(C(=O)c2cc3cc(OC(F)F)c(N)cc3[nH]2)c1N` [Example 5-1-083, [6-amino-5-(difluoromethoxy)-1H-indol-2-yl]-[5-amino-1-[4-(2-fluorophenoxy)-2-methylphenyl]pyrazol-4-yl]methanone], for which the values for the IC50 at human Yes1 enzyme, at human Src enzyme and on human Lck enzyme were 0.72 nM, 7.2 nM and 7 nM, respectively.
Regarding `Cc1cc(Oc2cccc(Cl)c2)ccc1-n1ncc(C(=O)c2cc3cc(F)c(C4CCN(C(C)C)CC4)cc3[nH]2)c1N` [Example 4-2-013, [5-amino-1-[4-(3-chlorophenoxy)-2-methylphenyl]pyrazol-4-yl]-[5-fluoro-6-(1-propan-2-ylpiperidin-4-yl)-1H-indol-2-yl]methanone], the IC50 at human Yes1 enzyme (setting [1]) worked out at 1.1 nM; on human Src enzyme (setting [1]), 49 nM; at human Lck enzyme (setting [1]), 9.7 nM.
For `Cc1cc(Oc2ccccc2F)cc(F)c1-n1ncc(C(=O)c2cc3cc(OCC(F)F)c(NS(=O)(=O)CCCF)cc3[nH]2)c1N` [Example 4-24-026, N-[2-[5-amino-1-[2-fluoro-4-(2-fluorophenoxy)-6-methylphenyl]pyrazole-4-carbonyl]-5-(2,2-difluoroethoxy)-1H-indol-6-yl]-3-fluoropropane-1-sulfonamide], the results for the IC50 on human Yes1 enzyme (setting [1]), on human Src enzyme (setting [1]) and at human Lck enzyme (setting [1]) were 1.7 nM, 50 nM and 21 nM, respectively.
The matching figures for `CC(=O)N1CCC(c2cc3[nH]c(C(=O)c4cnn(-c5cnc(Oc6c(F)cccc6F)cc5C)c4N)cc3cc2OC(F)F)CC1` [Example 4-17-011, 1-[4-[2-[5-amino-1-[6-(2,6-difluorophenoxy)-4-methylpyridin-3-yl]pyrazole-4-carbonyl]-5-(difluoromethoxy)-1H-indol-6-yl]piperidin-1-yl]ethanone]: 13 nM, 43 nM and 23 nM.
Take `Cc1cc(Oc2c(F)cccc2F)ncc1-n1ncc(C(=O)c2cc3cc(OCC(F)F)c(C4CCN(C(=O)OC(C)(C)C)CC4)cc3[nH]2)c1N` [Example 5-1-069, tert-Butyl 4-[2-[5-amino-1-[6-(2,6-difluorophenoxy)-4-methylpyridin-3-yl]pyrazole-4-carbonyl]-5-(2,2-difluoroethoxy)-1H-indol-6-yl]piperidine-1-carboxylate]: the IC50 came out at 18 nM on human Yes1 enzyme, 33 nM on human Src enzyme and 20 nM at human Lck enzyme.
In the same order, the values of `Cc1cc(Oc2ccccc2F)ccc1-n1ncc(C(=O)c2cc3cc(N4CCOCC4)c(N4C(=O)C(C)(C)NC4=S)cc3[nH]2)c1N` [Example 5-1-120, 3-[2-[5-amino-1-[4-(2-fluorophenoxy)-2-methylphenyl]pyrazole-4-carbonyl]-5-morpholin-4-yl-1H-indol-6-yl]-5,5-dimethyl-2-sulfanylideneimidazolidin-4-one] are 0.43 nM, 23 nM and 6.1 nM.
With `Cc1cc(Oc2ccccc2F)ccc1-n1ncc(C(=O)c2cc3cc(OCC(F)F)c(NS(=O)(=O)C4CC4)cc3[nH]2)c1N` [Example 4-24-020, N-[2-[5-amino-1-[4-(2-fluorophenoxy)-2-methylphenyl]pyrazole-4-carbonyl]-5-(2,2-difluoroethoxy)-1H-indol-6-yl]cyclopropanesulfonamide], the IC50 on human Yes1 enzyme (setting [1]) stood at 3.1 nM; at human Src enzyme (setting [1]) it was 54 nM; at human Lck enzyme (setting [1]), 22 nM.
Regarding `CC(=O)N1CCC(c2cc3[nH]c(C(=O)c4cnn(-c5cnc(Oc6ccccc6F)cc5C)c4N)cc3cc2C)CC1` [Example 5-1-133, 1-[4-[2-[5-amino-1-[6-(2-fluorophenoxy)-4-methylpyridin-3-yl]pyrazole-4-carbonyl]-5-methyl-1H-indol-6-yl]piperidin-1-yl]ethanone], the IC50 at human Yes1 enzyme turned out to be 0.63 nM; on human Src enzyme, 6.1 nM; at human Lck enzyme, 2.5 nM.
With `COc1cc2cc(C(=O)c3cnn(-c4cnc(Oc5ccccc5F)cc4C)c3N)[nH]c2cc1NS(=O)(=O)CCCF` [Example 4-13-001, N-{2-{5-amino-1-[6-(2-fluorophenoxy)-4-methylpyridin-3-yl]pyrazole-4-carbonyl}-5-methoxy-1H-indol-6-yl}-3-fluoropropane-1-sulfonamide], the IC50 amounted to 2.4 nM at human Yes1 enzyme (setting [1]), 76 nM on human Src enzyme (setting [1]) and 26 nM on human Lck enzyme (setting [1]).
For `Cc1cc(Oc2cccc(F)c2)ncc1-n1ncc(C(=O)c2cc3cc(F)c(NS(=O)(=O)C4CC4)cc3[nH]2)c1N` [Example 4-2-048, N-[2-[5-amino-1-[6-(3-fluorophenoxy)-4-methylpyridin-3-yl]pyrazole-4-carbonyl]-5-fluoro-1H-indol-6-yl]cyclopropanesulfonamide], the IC50 at human Yes1 enzyme (setting [1]) amounted to 12 nM; at human Src enzyme (setting [1]), 290 nM; at human Lck enzyme (setting [1]), 79 nM.
For `Cc1cc(Oc2ccccc2F)cc(C)c1-n1ncc(C(=O)c2cc3cc(F)c(NS(=O)(=O)CCCF)cc3[nH]2)c1N` [Example 5-1-040, N-[2-[5-amino-1-[4-(2-fluorophenoxy)-2,6-dimethylphenyl]pyrazole-4-carbonyl]-5-fluoro-1H-indol-6-yl]-3-fluoropropane-1-sulfonamide], the IC50 on human Yes1 enzyme is 13 nM; at human Src enzyme, 280 nM; at human Lck enzyme, 88 nM.
As for `Cc1cc(Oc2ccccc2)cc(F)c1-n1ncc(C(=O)c2cc3cc(Cl)c(NS(C)(=O)=O)cc3[nH]2)c1N` [Example 4-2-084, N-[2-[5-amino-1-(2-fluoro-6-methyl-4-phenoxyphenyl)pyrazole-4-carbonyl]-5-chloro-1H-indol-6-yl]methanesulfonamide], the IC50 at human Yes1 enzyme (setting [1]) is 6.3 nM; on human Src enzyme (setting [1]), 160 nM; on human Lck enzyme (setting [1]), 73 nM.
Consider `Cc1cc(Oc2ccccc2F)ncc1-n1ncc(C(=O)c2cc3cc(F)c(NS(=O)(=O)c4cccc(F)n4)cc3[nH]2)c1N` [Example 5-1-519, N-[2-[5-amino-1-[6-(2-fluorophenoxy)-4-methylpyridin-3-yl]pyrazole-4-carbonyl]-5-fluoro-1H-indol-6-yl]-6-fluoropyridine-2-sulfonamide], for which the IC50 on human Yes1 enzyme (setting [1]) worked out at 4.6 nM; on human Src enzyme (setting [1]), 710 nM; on human Lck enzyme (setting [1]) it was 120 nM.
Turning to `Cc1cc2cc(C(=O)c3cnn(-c4cnc(Oc5ccccc5F)cc4C)c3N)[nH]c2cc1NS(=O)(=O)c1cncc(Cl)c1` [Example 5-1-495, N-[2-[5-amino-1-[6-(2-fluorophenoxy)-4-methylpyridin-3-yl]pyrazole-4-carbonyl]-5-methyl-1H-indol-6-yl]-5-chloropyridine-3-sulfonamide], the results for the IC50 at human Yes1 enzyme (setting [1]), on human Src enzyme (setting [1]) and at human Lck enzyme (setting [1]) were 3.9 nM, 550 nM and 360 nM, respectively.
Consider `Cc1cc2cc(C(=O)c3cnn(-c4ccc(Oc5ccccc5F)c(F)c4F)c3N)[nH]c2cc1NS(C)(=O)=O` [Example 5-1-214, N-[2-[5-amino-1-[2,3-difluoro-4-(2-fluorophenoxy)phenyl]pyrazole-4-carbonyl]-5-methyl-1H-indol-6-yl]methanesulfonamide], for which the IC50 at human Yes1 enzyme was determined as 0.99 nM; at human Src enzyme, 52 nM; at human Lck enzyme, 11 nM.
On to `Cc1cc(Oc2cc(F)ccc2F)cc(F)c1-n1ncc(C(=O)c2cc3cc(NS(C)(=O)=O)c(F)cc3[nH]2)c1N` [Example 4-2-101, N-[2-[5-amino-1-[4-(2,5-difluorophenoxy)-2-fluoro-6-methylphenyl]pyrazole-4-carbonyl]-6-fluoro-1H-indol-5-yl]methanesulfonamide], for which the IC50 was found to be 0.74 nM at human Yes1 enzyme (setting [1]), 50 nM on human Src enzyme (setting [1]) and 2.9 nM at human Lck enzyme (setting [1]).
